pIC50: −log10 of the molar value. “And” between values parts separate entries of the source, which are not always exact repeats. Equal values may be shown once. One block for each compound: values may come before it.
Tests used:
Type in all cases: cell-based, Human
[1] = system: monocyte TNFα production induced by anti-CD3 antibody stimulated T-cells (Ttcr cells); experiment: Ttcr cell-induced TNFα production by monocytes (co-culture, ELISA); settings: for pIC50: Homo sapiens, Monocyte, T cells:monocytes 5:1, 18 h co-culture, read-out: IC50, inhibition of monocyte TNFα production induced by Ttcr cells
Experimental: Human peripheral blood T cells and monocytes were isolated from single donor plateletpheresis residues (purchased from the North London Blood Transfusion service, Colindale, GB). Mononuclear cells were isolated by Ficoll/Hypaque centrifugation (specific density 1.077 g/ml, Nycomed Pharma AS, Oslo, Norway), prior to cell separation in a Beckman JE6 elutriator. Elutriation was performed in culture medium containing 1% heat-inactivated foetal calf serum (FCS) using methods known in the art (see Sebbag et al., 1997, Parry et al., 1997). T cell and monocyte purity were assessed by flow cytometry (see Sebbag et al., 1997).
Ttcr cells: Ttcr cells were prepared from elutriation enriched T cells by resuspending the cells at a density of 10^6 cells/ml in RPMI 1640 (containing 10% heat inactivated AB+ human serum (Biowhittaker, UK). Following resuspension, the cells were incubated (at 37° C. in a 5% CO2/95% humidified incubator) in 6-well culture plates with immobilised anti-CD3 monoclonal antibodies for 24 hours (OKT3, ATCC, Maryland, USA), the antibodies having previously been coated on to the 6-well culture plates at 10 μg/ml (overnight at 4° C.).
Following completion of the culture period, the Tck and Ttcr cells were harvested and washed three times in RPMI medium containing 1% heat-inactivated fetal calf serum (FCS), prior to fixation for 1 minute at 0° C. in PBS containing 0.05% glutaraldehyde, and neutralized with an equivalent volume of T lymphocyte neutralizing buffer containing 0.2 M glycine. […]
(§1) Reagents for the TNFα ELISA were provided by Dr. W. Buurman (Rijks Universiteit Limburg, Maastricht, Netherlands). […] The rabbit polyclonal antibody was detected using a peroxidase-conjugated goat anti-rabbit IgG (H+L) (Jackson Immunoresearch Laboratories Inc., Westgrove, PE, USA) followed by an appropriate substrate. […]
(§2) Monocytes were treated with M-CSF for 2 days as described above, infected with adenovirus containing either an insert encoding IκBα (AdvIκBα) or no insert (Adv0). The effect of IκBα over-expression on T cell-induced monocyte (ratio 5:1) TNFα production was then determined.

[2] = system: monocyte TNFα production induced by cytokine stimulated T cells (Tck cells); experiment: Tck cell-induced TNFα production by monocytes (co-culture, ELISA); settings: T cells stimulated with IL-2, IL-6 and TNFα; results not shown
Experimental: Human peripheral blood T cells and monocytes were isolated from single donor plateletpheresis residues (purchased from the North London Blood Transfusion service, Colindale, GB). Mononuclear cells were isolated by Ficoll/Hypaque centrifugation (specific density 1.077 g/ml, Nycomed Pharma AS, Oslo, Norway), prior to cell separation in a Beckman JE6 elutriator. Elutriation was performed in culture medium containing 1% heat-inactivated foetal calf serum (FCS) using methods known in the art (see Sebbag et al., 1997, Parry et al., 1997). T cell and monocyte purity were assessed by flow cytometry (see Sebbag et al., 1997). […]
as §1, §2

[3] = system: monocyte TNFα production induced by RA CD3+ enriched cells; experiment: Monocyte TNFα production induced by fixed RA synovial CD3+ enriched T cells; settings: for TNFα: LY294002 50 μM 30 min, Wortmannin 500 nM 30 min, AKTA 5 mM 30 min, Rapamycin 10 μM 60 min, untreated control 686 ± 59, mean ±SD; for TNFα / Percent change: RA T cells:monocytes 5:1, 18 h; for Percent change: change of TNFα versus untreated control, LY294002 50 μM, Wortmannin 500 nM, Rapamycin 10 μM
Experimental: (§3) Rheumatoid arthritis (RA) mononuclear cells were obtained from synovial tissue specimens provided by the Rheumatology Clinic, Charing Cross Hospital, London, UK. Tissue was teased into small pieces and digested in medium containing 0.15 mg/ml DNase type 1 (Sigma, UK) and 5 mg/ml collagenase (Roche, UK) for 1 to 2 hours at 37° C. After passing cells through nylon mesh to exclude cell debris, cells were washed and resuspended in RPMI medium (Biohittaker, Verviers, Belgium) (containing 10% heat-inactivated FCS) at a density of 1×10^6 cells/ml and used immediately.
CD3+ enriched cells were isolated from RA synovial mononuclear cells by direct, positive selection using Dynabeads (Dynal UK Ltd, Wirral, UK) coated with anti-CD3 monoclonal antibodies (anti-CD3 mAbs). Briefly, mononuclear cells (1×10^7) were cultured with 100 μl anti-CD3 mAb-coated Dynabeads for 20 minutes at 4° C. under constant rotation. Cells attached to beads were isolated using a magnetic particle concentrator (Dynal, Merseyside, UK) and cultured for 6 hours at 37° C. Detached cells were removed from magnetic beads and washed three times using the magnetic particle concentrator.
This technique allowed for isolation of CD3+ cells, yielding cells of high purity (>99%) and viability (>95%). Following isolation, CD3+ enriched cells were washed three times in RPMI medium containing 1% heat-inactivated FCS, fixed for 1 minute at 0° C. in phosphate-buffered saline (PBS) containing 0.05% glutaraldehyde, and neutralized with an equivalent volume of T lymphocyte neutralizing buffer containing 0.2 M glycine. Following a further three washes, the fixed CD3+ cells were resuspended (at a concentration of 2×10^6 cell/ml) in RPMI medium containing 5% heat-inactivated FCS, and stored for up to 7 days at 4° C. until used. Prior to use, CD3+ enriched cells were washed twice in complete medium.
Monocytes were cultured at 1×10^6 cells/ml in RPMI 1640 medium (containing 5% heat-inactivated FCS) in round-bottomed 96-well culture plates (Nunc Life Technologies Ltd., Paisley, Scotland) in the presence of fixed T cells at varying T-cell/monocyte ratios ranging from 1:1 to 7:1 (as indicated). In some experiments, a semi-permeable membrane insert (Nunc Life Technologies Ltd., Paisley, Scotland) was fitted into the culture wells to physically separate the monocytes from the T cells. In all experiments, efficient fixation of T cells was tested by incubating an aliquot of T-cells (7×10^6 cells/ml) in the absence of monocytes and assaying the amount of TNFα released by the cells under these conditions. Lipopolysaccharide (LPS, 10 ng/ml) was included in experiments as a positive control for monocyte cytokine production.
(§4) Reagents for the TNFα ELISA were provided by Dr. W. Buurman (Rijks Universiteit Limburg, Maastricht, Netherlands). The ELISA was performed using immobilized anti-TNFα mAb 61E71. and developed using a rabbit anti-TNFα polyclonal antibody. An alternative ELISA for TNFα is commercially available from Pharmingen. The rabbit polyclonal antibody was detected using a peroxidase-conjugated goat anti-rabbit IgG (H+L) (Jackson Immunoresearch Laboratories Inc., Westgrove, PE, USA) followed by an appropriate substrate. The sensitivity range of the assay was 1.6 to 5000 pg/ml.
For monocyte/T-cell co-culture experiments, monocytes were cultured with relevant enzyme inhibitors at 37° C. for varying periods of time (see legend to Table 2) prior to co-culture with fixed T-cells for 18 hours. Supernatants were harvested and assayed for presence of TNFα by ELISA. Cell suspensions were taken for determination of cell viability. […]
The effect of wortmannin and LY294002 was also studied on monocyte TNFα production induced by RA CD3+ ve enriched cells (see Table 2). Normal monocytes isolated by elutriation were treated with selective enzyme inhibitors for the designated times prior to co-culture with fixed rheumatoid CD3+ T cells at a ratio 5:1 (T cells to monocytes) for 18 hours. […]

[4] = system: TNFα production in osteoarthritis (OA) synovial cultures; experiment: TNFα production in osteoarthritis (OA) synovial cultures; settings: 48 h
Experimental: as §3, with “Osteoarthritis (OA)” for “Rheumatoid arthritis (RA)”, “As in the case of RA cells (above), OA synovial tissue” for “Tissue”, “(BioWhittaker,” for “(Biohittaker,”
as §4
The effect of the PI3 kinase inhibitor, LY294002, was studied on TNFα production in osteoarthritis (OA) synovial cultures. OA synovial joint cultures were cultured for 48 hours in the presence of increasing concentrations of the PI3 kinase inhibitor, LY294002. Culture supernatants were then harvested and assayed for TNFα (pg/ml) by ELISA.

SMILES: CO[C@H]1C[C@@H]2CC[C@@H](C)[C@@](O)(O2)C(=O)C(=O)N2CCCC[C@H]2C(=O)O[C@H]([C@H](C)C[C@@H]2CC[C@@H](O)[C@H](OC)C2)CC(=O)[C@H](C)/C=C(\C)[C@@H](O)[C@@H](OC)C(=O)[C@H](C)C[C@H](C)/C=C/C=C/C=C/1C [Rapamycin, rapamycin]
effect on monocyte TNFα production induced by anti-CD3 antibody stimulated T cells ([1]; results not shown): no effect | effect on monocyte TNFα production induced by cytokine stimulated T cells [2]: no effect | effect on TNFα production in monocytes stimulated by RA T-cells ([3]; AKTA 5 mM, rapamycin 10 μM, T cells:monocytes 5:1): no significant effect | TNFα [3]: 399 ± 21 pg/mL | Percent change ([3]; AKTA 5 mM): −42%

SMILES: COC[C@H]1OC(=O)c2coc3c2[C@@]1(C)C1=C(C3=O)[C@@H]2CCC(=O)[C@@]2(C)C[C@H]1OC(C)=O [Wortmannin, wortmannin]
pIC50 [1]: 10.30 | TNFα [3]: 7333 ± 304 pg/mL | TNFα ([3]; listed as wortmannin): 7333 ± 304 pg/mL | Percent change ([3]; AKTA 5 mM): +968%

pIC50 [1]: 7.15
SMILES: O=c1cc(N2CCOCC2)oc2c(-c3ccccc3)cccc12 [LY294002]
TNFα [3]: 883 ± 304 pg/mL and 883 ± 38 pg/mL | Percent change ([3]; AKTA 5 mM): +29% | TNFα production ([4]; culture OA 1833, LY 294002 0.005 μM, 0.0 μM: 224 ± 15): 236 ± 11 pg/mL | TNFα production ([4]; culture OA 1833, LY 294002 0.05 μM, 0.0 μM: 224 ± 15): 235 ± 22 pg/mL | TNFα production ([4]; culture OA 1833, LY 294002 0.5 μM, 0.0 μM: 224 ± 15): 233 ± 28 pg/mL | TNFα production ([4]; culture OA 1833, LY 294002 5.0 μM, 0.0 μM: 224 ± 15): 202 ± 15 pg/mL | TNFα production ([4]; culture OA 1833, LY 294002 50.0 μM, 0.0 μM: 224 ± 15): 204 ± 5 pg/mL | TNFα production ([4]; culture OA 1840, LY 294002 0.005 μM, 0.0 μM: 635 ± 19): 612 ± 13 pg/mL | TNFα production ([4]; culture OA 1840, LY 294002 0.05 μM, 0.0 μM: 635 ± 19): 642 ± 32 pg/mL | TNFα production ([4]; culture OA 1840, LY 294002 0.5 μM, 0.0 μM: 635 ± 19): 597 ± 38 pg/mL | TNFα production ([4]; culture OA 1840, LY 294002 5.0 μM, 0.0 μM: 635 ± 19): 651 ± 50 pg/mL | TNFα production ([4]; culture OA 1840, LY 294002 50.0 μM, 0.0 μM: 635 ± 19): 600 ± 31 pg/mL | TNFα production ([4]; culture OA 1851, LY 294002 0.005 μM, 0.0 μM: 227 ± 19): 236 ± 13 pg/mL | TNFα production ([4]; culture OA 1851, LY 294002 0.05 μM, 0.0 μM: 227 ± 19): 250 ± 12 pg/mL | TNFα production ([4]; culture OA 1851, LY 294002 0.5 μM, 0.0 μM: 227 ± 19): 237 ± 63 pg/mL | TNFα production ([4]; culture OA 1851, LY 294002 5.0 μM, 0.0 μM: 227 ± 19): 233 ± 15 pg/mL | TNFα production ([4]; culture OA 1851, LY 294002 50.0 μM, 0.0 μM: 227 ± 19): 246 ± 31 pg/mL | TNFα production ([4]; culture OA 1861, LY 294002 0.005 μM, 0.0 μM: 155 ± 42): 141 ± 33 pg/mL | TNFα production ([4]; culture OA 1861, LY 294002 0.05 μM, 0.0 μM: 155 ± 42): 127 ± 5 pg/mL | TNFα production ([4]; culture OA 1861, LY 294002 0.5 μM, 0.0 μM: 155 ± 42): 145 ± 29 pg/mL | TNFα production ([4]; culture OA 1861, LY 294002 5.0 μM, 0.0 μM: 155 ± 42): 131 ± 44 pg/mL | TNFα production ([4]; culture OA 1861, LY 294002 50.0 μM, 0.0 μM: 155 ± 42): 215 ± 9 pg/mL | TNFα production ([4]; culture OA 1862, LY 294002 0.005 μM, 0.0 μM: 141 ± 35): 166 ± 31 pg/mL | TNFα production ([4]; culture OA 1862, LY 294002 0.05 μM, 0.0 μM: 141 ± 35): 171 ± 55 pg/mL | TNFα production ([4]; culture OA 1862, LY 294002 0.5 μM, 0.0 μM: 141 ± 35): 185 ± 7 pg/mL | TNFα production ([4]; culture OA 1862, LY 294002 5.0 μM, 0.0 μM: 141 ± 35): 226 ± 100 pg/mL | TNFα production ([4]; culture OA 1862, LY 294002 50.0 μM, 0.0 μM: 141 ± 35): 205 ± 19 pg/mL | effect on TNFα production in cultures of OA synovial tissue ([4]; varying concentrations, five different samples): no significant effect

Source: patent US7390630B1, “Method of identifying a compound that selectively inhibits cytokine-stimulated T cell induced production of TNF-alpha by monocytes” (Mathilda and Terence Kennedy Institute of Rheumatology Trust, priority 1999, dated 2008)
